Read-outs that look alike come from different tables or passages of the source.
Key:
HDAC1 = HDAC1 (Homo sapiens (Human), UniProt Q13547); experiment: HDAC1 enzymatic assay; format: biochemical
Method in brief: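 Compound inhibition of human HDAC1 (0.5 ng enzyme, 10 uM substrate) was assessed by fluorescence after developer treatment, excitation 360 nm and emission 460 nm. Percent activity was normalized to no-compound (100%) and no-enzyme (0%) controls, plotted against concentration, and fitted to a sigmoidal dose-response curve in Graphpad Prism to obtain IC50 at half-maximal activity.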

HDAC6 = HDAC6 (Homo sapiens (Human), UniProt Q9UBN7); experiment: HDAC6 enzymatic assay; format: biochemical
Method in brief: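 Following a 17 hour room-temperature incubation of 2 ng HDAC6 with 10 uM substrate and compound, 50 μl developer was added for another 20 minutes, and fluorescence (excitation 360 nm, emission 460 nm) was recorded. Activity was normalized to no-compound (100%) and no-enzyme (0%) wells, and IC50 came from sigmoidal dose-response fitting in Graphpad Prism.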

[1] = Mouse Pharmacokinetics, oral single dose; format: in vivo, male Swiss Albino mice; conditions: male, Swiss Albino, plasma, 5 mg/kg, formulation by footnote: a 20% CremEL in H20, b 1% CMC in water, c 2% DMSO, 0.2% Tween80, 97.8% of 1% CMC
Method: Example 187: Mouse Pharmacokinetics
A dose of 5 mg/kg in an appropriate formulation was administered by oral gavage to fasted male Swiss Albino mice (n=3), and the plasma was collected at 0, 0.25, 0.5, 1, 2, 4, 8, and 24 h. Plasma levels were measured by HPLC/MS/MS methods and the pharmacokinetic parameters were determined for individual animals from plasma concentration-time data using noncompartmental model 200-202 in Phoenix WinNonlin 6.3.

HDAC9 = HDAC9 (Homo sapiens (Human), UniProt Q9UKV0); experiment: HDAC9 enzymatic assay; format: biochemical; conditions: selectivity profile; read-out: HDAC Enzyme IC50, HDAC 9
Sequence of HDAC9 (Q9UKV0 whole entry, species assumed): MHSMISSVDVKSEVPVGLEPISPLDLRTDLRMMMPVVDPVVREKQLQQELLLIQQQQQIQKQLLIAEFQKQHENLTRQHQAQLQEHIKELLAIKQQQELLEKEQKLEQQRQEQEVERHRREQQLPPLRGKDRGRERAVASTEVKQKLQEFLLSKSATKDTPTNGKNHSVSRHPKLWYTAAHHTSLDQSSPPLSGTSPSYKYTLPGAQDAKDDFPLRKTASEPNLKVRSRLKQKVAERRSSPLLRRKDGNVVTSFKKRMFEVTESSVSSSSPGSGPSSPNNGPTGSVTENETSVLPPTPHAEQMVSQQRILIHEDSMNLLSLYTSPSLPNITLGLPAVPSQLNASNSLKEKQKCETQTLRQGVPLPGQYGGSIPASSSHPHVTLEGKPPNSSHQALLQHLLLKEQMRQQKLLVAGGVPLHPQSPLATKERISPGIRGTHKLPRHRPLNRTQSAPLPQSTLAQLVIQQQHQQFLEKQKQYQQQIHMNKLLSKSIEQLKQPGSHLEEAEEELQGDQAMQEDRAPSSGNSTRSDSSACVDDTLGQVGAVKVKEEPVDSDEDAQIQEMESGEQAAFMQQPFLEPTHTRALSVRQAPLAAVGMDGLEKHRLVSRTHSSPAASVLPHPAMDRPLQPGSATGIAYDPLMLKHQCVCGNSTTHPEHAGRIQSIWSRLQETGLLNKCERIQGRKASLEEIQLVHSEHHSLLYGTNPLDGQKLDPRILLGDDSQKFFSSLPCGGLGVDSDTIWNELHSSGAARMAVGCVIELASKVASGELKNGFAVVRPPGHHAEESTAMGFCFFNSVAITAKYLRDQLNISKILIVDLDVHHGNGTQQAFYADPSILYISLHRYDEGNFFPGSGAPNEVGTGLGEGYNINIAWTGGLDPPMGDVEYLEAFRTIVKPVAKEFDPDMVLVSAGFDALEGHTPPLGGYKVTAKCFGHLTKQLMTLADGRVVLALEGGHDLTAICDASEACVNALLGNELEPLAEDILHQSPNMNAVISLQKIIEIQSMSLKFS
Method: (§1) All enzymatic reactions were conducted in duplicate at room temperature for 17 hours in a 50 μl mixture containing HDAC assay buffer (50 mM Tris-HCl, pH 7.4, 137 mM NaCl, 2.7 mM KCl, 0.05% Tween 20, 5 μg BSA), an HDAC substrate, an HDAC enzyme, and a test compound. Compound dilution was prepared ten-fold higher than the final concentration of the compounds with 10% DMSO in HDAC assay buffer and 5 μl of the dilution was added to a 50 μl reaction so that the final concentration of DMSO is 1% in all of reactions. After enzymatic reactions, 50 μl of HDAC Developer was added to each well and the plate was incubated at room temperature for an additional 20 minutes. Fluorescence intensity was measured at an excitation of 360 nm and an emission of 460 nm using a Tecan Infinite M1000 or Biotek Synergy microplate reader.
(§2) The fluorescent intensity data were analyzed using the computer software, Graphpad Prism. In the absence of the compound, the fluorescent intensity (Ft) in each data set was defined as 100% activity. In the absence of HDAC, the fluorescent intensity (Fb) in each data set was defined as 0% activity. The percent activity in the presence of each compound was calculated according to the following equation: % activity=(F−Fb)/(Ft−Fb), where F=the fluorescent intensity in the presence of the compound.
(§3) The values of % activity versus a series of compound concentrations were then plotted using non-linear regression analysis of Sigmoidal dose-response curve generated with the equation Y=B+(T−B)/1+10((Log EC50−X)×Hill Slope), where Y=percent activity, B=minimum percent activity, T=maximum percent activity, X=logarithm of compound and Hill Slope=slope factor or Hill coefficient. The IC50 value was determined by the concentration causing a half-maximal percent activity.
(§4) HDAC1 enzymatic assays contained 0.5 ng HDAC1 and 10 uM of HDAC substrate. HDAC2 enzymatic assays contained 0.5 ng HDAC2 and 10 uM of HDAC substrate. HDAC3 enzymatic assays contained 0.4 ng HDAC3/NCOR2 and 10 uM of HDAC substrate. HDAC4 enzymatic assays contained 0.02 ng HDAC4 and 2 uM of HDAC substrate. HDAC5 enzymatic assays contained 0.5 ng HDAC5 and 2 uM of HDAC substrate. HDAC6 enzymatic assays contained 2 ng HDAC6 and 10 uM of HDAC substrate. HDAC7 enzymatic assays contained 0.05 ng HDAC7 and 2 uM of HDAC substrate. HDAC8 enzymatic assays contained 5 ng HDAC8 and 2 uM of HDAC substrate. HDAC9 enzymatic assays contained 1 ng HDAC9 and 2 uM of HDAC substrate. HDAC10 enzymatic assays contained 75 ng HDAC10 and 10 uM of HDAC substrate. HDAC11 enzymatic assays contained 5 ng HDAC11 and 2 uM of HDAC substrate.

HDAC11 = HDAC11 (Homo sapiens (Human), UniProt Q96DB2); experiment: HDAC11 enzymatic assay; format: biochemical; conditions: selectivity profile; read-out: HDAC Enzyme IC50, HDAC 11
Sequence of HDAC11 (Q96DB2 whole entry, species assumed): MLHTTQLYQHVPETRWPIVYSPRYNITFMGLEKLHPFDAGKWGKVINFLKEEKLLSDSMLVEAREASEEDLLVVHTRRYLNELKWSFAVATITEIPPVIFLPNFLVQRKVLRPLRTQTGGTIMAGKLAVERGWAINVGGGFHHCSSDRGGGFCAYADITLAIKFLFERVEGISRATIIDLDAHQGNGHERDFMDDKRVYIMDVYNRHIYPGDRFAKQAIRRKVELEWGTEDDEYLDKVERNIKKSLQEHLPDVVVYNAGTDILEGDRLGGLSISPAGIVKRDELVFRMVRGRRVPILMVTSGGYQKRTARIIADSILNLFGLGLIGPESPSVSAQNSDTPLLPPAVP
Method: as §1, §2, §3, §4

HDAC2 = HDAC2 (Homo sapiens (Human), UniProt Q92769); experiment: HDAC2 enzymatic assay; format: biochemical; conditions: selectivity profile; read-out: HDAC Enzyme IC50, HDAC 2
Sequence of HDAC2 (Q92769 whole entry, species assumed): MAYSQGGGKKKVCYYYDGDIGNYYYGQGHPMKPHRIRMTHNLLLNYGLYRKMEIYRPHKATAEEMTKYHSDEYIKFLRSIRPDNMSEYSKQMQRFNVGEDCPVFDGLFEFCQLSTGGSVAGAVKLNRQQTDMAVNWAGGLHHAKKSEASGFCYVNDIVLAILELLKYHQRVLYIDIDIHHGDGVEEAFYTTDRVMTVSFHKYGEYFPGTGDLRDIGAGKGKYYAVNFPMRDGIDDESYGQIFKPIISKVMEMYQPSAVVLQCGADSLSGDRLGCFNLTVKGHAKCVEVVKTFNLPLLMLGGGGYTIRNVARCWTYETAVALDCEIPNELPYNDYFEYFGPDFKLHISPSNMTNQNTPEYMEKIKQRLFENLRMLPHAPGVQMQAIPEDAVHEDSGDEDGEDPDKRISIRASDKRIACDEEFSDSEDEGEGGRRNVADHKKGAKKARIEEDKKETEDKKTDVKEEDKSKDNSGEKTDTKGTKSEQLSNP
Method: as §1, §2, §3, §4

HDAC3/NCOR2 = HDAC3/NCOR2 (Homo sapiens (Human), UniProt O15379); experiment: HDAC3 enzymatic assay; format: biochemical; conditions: selectivity profile; read-out: HDAC Enzyme IC50, HDAC 3
Method: as §1, §2, §3, §4

HDAC7 = HDAC7 (Homo sapiens (Human), UniProt Q8WUI4); experiment: HDAC7 enzymatic assay; format: biochemical; conditions: selectivity profile; read-out: HDAC Enzyme IC50, HDAC 7
Sequence of HDAC7 (Q8WUI4 whole entry): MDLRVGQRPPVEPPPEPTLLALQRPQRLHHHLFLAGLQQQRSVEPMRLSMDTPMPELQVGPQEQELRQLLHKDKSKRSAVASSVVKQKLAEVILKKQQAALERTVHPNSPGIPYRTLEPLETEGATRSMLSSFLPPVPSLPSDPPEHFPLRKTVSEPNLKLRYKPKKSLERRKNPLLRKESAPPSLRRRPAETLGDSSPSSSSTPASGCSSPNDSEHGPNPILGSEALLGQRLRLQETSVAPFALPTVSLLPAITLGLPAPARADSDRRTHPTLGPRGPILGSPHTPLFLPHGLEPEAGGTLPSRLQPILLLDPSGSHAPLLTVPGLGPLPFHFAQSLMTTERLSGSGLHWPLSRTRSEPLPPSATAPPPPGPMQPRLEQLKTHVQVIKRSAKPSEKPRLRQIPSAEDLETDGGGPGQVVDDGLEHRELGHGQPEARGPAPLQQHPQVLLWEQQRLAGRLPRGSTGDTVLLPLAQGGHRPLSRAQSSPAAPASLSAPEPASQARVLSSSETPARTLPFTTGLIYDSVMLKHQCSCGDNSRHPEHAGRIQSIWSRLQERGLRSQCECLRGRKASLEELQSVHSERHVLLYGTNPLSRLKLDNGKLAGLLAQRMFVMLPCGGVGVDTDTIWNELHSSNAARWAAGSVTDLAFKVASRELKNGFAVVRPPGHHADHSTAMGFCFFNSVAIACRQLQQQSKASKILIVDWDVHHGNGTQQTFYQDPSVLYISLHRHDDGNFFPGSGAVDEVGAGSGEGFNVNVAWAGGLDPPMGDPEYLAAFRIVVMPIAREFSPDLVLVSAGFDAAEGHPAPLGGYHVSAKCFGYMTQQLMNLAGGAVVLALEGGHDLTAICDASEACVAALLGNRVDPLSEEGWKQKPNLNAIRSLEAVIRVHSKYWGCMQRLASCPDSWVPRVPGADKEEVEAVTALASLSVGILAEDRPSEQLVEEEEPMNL
Method: as §1, §2, §3, §4

HDAC4 = HDAC4 (Homo sapiens (Human), UniProt P56524); experiment: HDAC4 enzymatic assay; format: biochemical; conditions: selectivity profile; read-out: HDAC Enzyme IC50, HDAC 4
Sequence of HDAC4 (P56524 whole entry, species assumed): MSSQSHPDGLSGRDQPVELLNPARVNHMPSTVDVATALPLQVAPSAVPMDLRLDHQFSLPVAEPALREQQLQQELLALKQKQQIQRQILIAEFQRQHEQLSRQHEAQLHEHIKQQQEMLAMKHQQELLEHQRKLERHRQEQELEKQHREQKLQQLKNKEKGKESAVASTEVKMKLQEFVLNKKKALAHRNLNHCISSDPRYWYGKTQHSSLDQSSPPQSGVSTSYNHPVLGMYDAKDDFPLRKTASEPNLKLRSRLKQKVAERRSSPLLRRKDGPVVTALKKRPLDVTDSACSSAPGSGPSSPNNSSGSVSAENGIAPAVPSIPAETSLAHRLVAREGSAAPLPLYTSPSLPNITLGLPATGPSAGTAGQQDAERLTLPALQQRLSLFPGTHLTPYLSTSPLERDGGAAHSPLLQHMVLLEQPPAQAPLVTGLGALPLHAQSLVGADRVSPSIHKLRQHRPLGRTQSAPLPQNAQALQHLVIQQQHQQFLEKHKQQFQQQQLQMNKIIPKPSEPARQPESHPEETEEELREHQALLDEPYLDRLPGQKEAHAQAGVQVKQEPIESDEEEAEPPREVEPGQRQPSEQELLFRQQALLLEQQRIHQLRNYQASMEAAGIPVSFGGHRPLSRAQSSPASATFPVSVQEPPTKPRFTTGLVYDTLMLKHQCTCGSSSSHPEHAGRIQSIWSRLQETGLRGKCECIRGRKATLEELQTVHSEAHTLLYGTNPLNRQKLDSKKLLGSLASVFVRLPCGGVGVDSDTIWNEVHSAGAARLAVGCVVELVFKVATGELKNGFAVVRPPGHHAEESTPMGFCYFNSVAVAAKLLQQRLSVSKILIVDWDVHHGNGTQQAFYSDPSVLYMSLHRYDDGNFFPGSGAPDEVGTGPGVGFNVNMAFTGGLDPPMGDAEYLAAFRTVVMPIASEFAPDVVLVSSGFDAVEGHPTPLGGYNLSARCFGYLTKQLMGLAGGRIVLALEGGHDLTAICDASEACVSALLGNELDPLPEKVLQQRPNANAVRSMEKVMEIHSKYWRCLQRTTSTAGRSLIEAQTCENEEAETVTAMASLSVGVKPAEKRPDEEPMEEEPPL
Method: as §1, §2, §3, §4

HDAC5 = HDAC5 (Homo sapiens (Human), UniProt Q9UQL6); experiment: HDAC5 enzymatic assay; format: biochemical; conditions: selectivity profile; read-out: HDAC Enzyme IC50, HDAC 5
Method: as §1, §2, §3, §4

HDAC8 = HDAC8 (Homo sapiens (Human), UniProt Q9BY41); experiment: HDAC8 enzymatic assay; format: biochemical; conditions: selectivity profile; read-out: HDAC Enzyme IC50, HDAC 8
Method: as §1, §2, §3, §4

HDAC10 = HDAC10 (Homo sapiens (Human), UniProt Q969S8); experiment: HDAC10 enzymatic assay; format: biochemical; conditions: selectivity profile; read-out: HDAC Enzyme IC50, HDAC 10
Sequence of HDAC10 (Q969S8 whole entry, species assumed): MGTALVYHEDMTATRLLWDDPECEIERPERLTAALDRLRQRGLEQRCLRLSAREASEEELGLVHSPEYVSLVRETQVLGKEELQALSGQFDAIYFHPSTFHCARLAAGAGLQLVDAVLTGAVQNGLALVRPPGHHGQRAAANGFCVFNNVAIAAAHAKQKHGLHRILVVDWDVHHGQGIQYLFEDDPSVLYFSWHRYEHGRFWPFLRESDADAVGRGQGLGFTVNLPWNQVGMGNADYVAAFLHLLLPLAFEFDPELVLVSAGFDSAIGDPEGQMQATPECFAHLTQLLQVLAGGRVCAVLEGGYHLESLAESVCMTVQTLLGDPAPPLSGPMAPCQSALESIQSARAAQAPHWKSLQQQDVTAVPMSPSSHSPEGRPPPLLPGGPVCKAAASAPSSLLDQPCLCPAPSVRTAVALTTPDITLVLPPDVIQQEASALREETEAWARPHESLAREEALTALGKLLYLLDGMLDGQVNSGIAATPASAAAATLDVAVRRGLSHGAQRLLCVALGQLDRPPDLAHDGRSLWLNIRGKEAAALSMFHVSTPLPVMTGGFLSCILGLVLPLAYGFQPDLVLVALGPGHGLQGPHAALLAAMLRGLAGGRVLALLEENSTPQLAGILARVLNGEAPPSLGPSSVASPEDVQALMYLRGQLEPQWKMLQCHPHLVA
Method: as §1, §2, §3, §4

[2] = selectivity profile, read-out: HDAC Enzyme IC50, HDAC 1
[3] = selectivity profile, read-out: HDAC Enzyme IC50, HDAC 6

Sequence of HDAC1 (Q13547 whole entry): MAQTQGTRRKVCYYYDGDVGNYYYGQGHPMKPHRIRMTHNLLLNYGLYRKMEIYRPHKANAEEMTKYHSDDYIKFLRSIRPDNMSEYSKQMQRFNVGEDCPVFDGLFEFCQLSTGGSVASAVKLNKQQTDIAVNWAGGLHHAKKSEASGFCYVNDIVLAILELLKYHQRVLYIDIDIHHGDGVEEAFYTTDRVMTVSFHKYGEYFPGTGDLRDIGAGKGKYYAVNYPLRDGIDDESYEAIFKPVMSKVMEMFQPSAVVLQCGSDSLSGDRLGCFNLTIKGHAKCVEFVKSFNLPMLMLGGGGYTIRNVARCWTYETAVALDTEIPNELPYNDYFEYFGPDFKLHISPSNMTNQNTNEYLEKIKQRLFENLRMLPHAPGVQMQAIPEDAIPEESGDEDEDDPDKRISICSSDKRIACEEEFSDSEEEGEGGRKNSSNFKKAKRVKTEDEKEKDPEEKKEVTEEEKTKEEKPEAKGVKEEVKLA

IC50 (HDAC1; read-out: Human HDAC1 IC50)	IC50 (HDAC6; read-out: Human HDAC6 IC50)	Cmax [1]	half-life [1]	IC50 (HDAC9)	IC50 (HDAC11)	IC50 (HDAC2)	IC50 (HDAC3/NCOR2)	IC50 (HDAC7)	IC50 (HDAC4)	IC50 (HDAC5)	IC50 (HDAC8)	IC50 (HDAC10)	IC50 (HDAC1; [2])	IC50 (HDAC6; [3])	Compound
> 30 µM	0.23 µM	2590 ng/mL	3.3 h	–	–	–	–	–	–	–	–	–	–	–	CS(=O)(=O)NCC(Nc1ncc(-c2nnc(C(F)F)o2)cn1)c1ccc(F)c(F)c1 (single isomer, unassigned) [171(+), N-(2-((5-(5-(difluoromethyl)-1,3,4-oxadiazol-2-yl)pyrimidin-2-yl)amino)-2-(3,4-difluorophenyl)ethyl)methanesulfonamide]
> 30 µM	0.023 µM	–	–	> 30 µM	> 30 µM	> 30 µM	> 30 µM	> 30 µM	> 30 µM	> 30 µM	> 30 µM	> 30 µM	> 30 µM	0.023 µM	FC(F)c1nnc(-c2cnc(NC3(c4ccccc4)CC3)nc2)o1 [Example 4, 5-(5-(difluoromethyl)-1,3,4-oxadiazol-2-yl)-N-(1-phenylcyclopropyl)pyrimidin-2-amine]
> 30 µM	0.036 µM	–	–	> 30 µM	> 30 µM	> 30 µM	> 30 µM	> 30 µM	> 30 µM	> 30 µM	> 30 µM	> 30 µM	> 30 µM	0.036 µM	Fc1ccc(C(CC(F)(F)F)Nc2ncc(-c3nnc(C(F)F)o3)cn2)cc1 (centres unmarked) [Example 13, 5-(5-(difluoromethyl)-1,3,4-oxadiazol-2-yl)-N-(3,3,3-trifluoro-1-(4-fluorophenyl)propyl) pyrimidin-2-amine]
> 30 µM	0.028 µM	–	–	> 30 µM	> 30 µM	> 30 µM	> 30 µM	> 30 µM	> 30 µM	> 30 µM	> 30 µM	> 30 µM	> 30 µM	0.028 µM	C[C@@H](Nc1ncc(-c2nnc(C(F)F)o2)cn1)c1ccc(F)cc1F [Example 99-R, 5-[5-(difluoromethyl)-1,3,4-oxadiazol-2-yl]-N-[(1R)-1-(2,4-difluorophenyl)ethyl]pyrimidin-2-amine]
> 30 µM	0.043 µM	–	–	> 30 µM	> 30 µM	> 30 µM	> 30 µM	> 30 µM	> 30 µM	> 30 µM	> 30 µM	> 30 µM	> 30 µM	0.043 µM	CS(=O)(=O)CC(Nc1ncc(-c2nnc(C(F)F)o2)cn1)c1ccc(F)cc1 (single isomer, unassigned) [161(+), 5-(5-(difluoromethyl)-1,3,4-oxadiazol-2-yl)-N-(1-(4-fluorophenyl)-2-(methylsulfonyl)ethyl)pyrimidin-2-amine]
> 30 µM	0.035 µM	2530 ng/mL	4.1 h	–	–	–	–	–	–	–	–	–	–	–	O=S(=O)(NCC(Nc1ncc(-c2nnc(C(F)F)o2)cn1)c1ccc(F)cc1F)C1CC1 (stereo not drawn) [142(+), N-(2-((5-(5-(difluoromethyl)-1,3,4-oxadiazol-2-yl)pyrimidin-2-yl)amino)-2-(2,4-difluorophenyl)ethyl)cyclopropanesulfonamide]
> 30 µM	0.037 µM	678 ng/mL	3.4 h	–	–	–	–	–	–	–	–	–	–	–	CC(C)S(=O)(=O)NCC(Nc1ncc(-c2nnc(C(F)F)o2)cn1)c1ccc(F)cc1 (centres unmarked) [Example 109, N-(2-((5-(5-(difluoromethyl)-1,3,4-oxadiazol-2-yl)pyrimidin-2-yl)amino)-2-(4-fluorophenyl)ethyl)propane-2-sulfonamide]
> 30 µM	0.023 µM	3390 ng/mL	9.3 h	–	–	–	–	–	–	–	–	–	–	–	O=S(=O)(NCC(Nc1ncc(-c2nnc(C(F)F)o2)cn1)c1ccc(OC(F)F)cc1F)C1CC1 (stereo not drawn) [150(+), N-(2-(4-(difluoromethoxy)-2-fluorophenyl)-2-((5-(5-(difluoromethyl)-1,3,4-oxadiazol-2-yl)pyrimidin-2-yl)amino)ethyl)cyclopropanesulfonamide]
> 30 µM	0.017 µM	1010 ng/mL	4.5 h	–	–	–	–	–	–	–	–	–	–	–	CS(=O)(=O)NCC(Nc1ncc(-c2nnc(C(F)F)o2)cn1)c1ccc(OC(F)F)cc1F (single isomer, unassigned) [116(+), N-(2-(4-(difluoromethoxy)-2-fluorophenyl)-2-((5-(5-(difluoromethyl)-1,3,4-oxadiazol-2-yl)pyrimidin-2-yl)amino)ethyl)methanesulfonamide]
> 30 µM	0.024 µM	2820 ng/mL	5.6 h	–	–	–	–	–	–	–	–	–	–	–	CS(=O)(=O)NCC(Nc1ncc(-c2nnc(C(F)F)o2)cn1)c1ccc(Cl)cc1 (single isomer, unassigned) [173(+), N-(2-(4-chlorophenyl)-2-((5-(5-(difluoromethyl)-1,3,4-oxadiazol-2-yl)pyrimidin-2-yl)amino)ethyl)methanesulfonamide]
> 30 µM	0.027 µM	2120 ng/mL	2.3 h	–	–	–	–	–	–	–	–	–	–	–	CCS(=O)(=O)NCC(Nc1ncc(-c2nnc(C(F)F)o2)cn1)c1ccc(F)cc1 (centres unmarked) [Example 108, N-(2-((5-(5-(difluoromethyl)-1,3,4-oxadiazol-2-yl)pyrimidin-2-yl)amino)-2-(4-fluorophenyl)ethyl)ethanesulfonamide]
